Measurements as given in patent publication US20260200849A1, “CATIONIC LIPIDS AND PREPARATION METHOD THEREOF” (RiboX Therapeutics HK Limited, priority 2024, published 2026).
Several values for one entry are separate records, joined by “and”; a condition that tells them apart may be missing. Identical values can stand only once. Like-named read-outs stand apart in the source and are kept apart here.

Columns and labels:
[1] = tested on: Hep G2 cells; test: In vitro toxicity: Hep G2 cell viability by CellTiter-Glo; format: cell-based; conditions: Formulation No. 001, RNA No. 331, 1 μg/mL RNA-LNPs, 72 hours post transfection, cell only = 100%
Method: 2E5 Hep G2 cells were transfected with 1 μg/mL RNA-LNPs. At 72 hours post transfection, cell viability (2-well repeat) was determined with the CellTiter-Glo® reagent kit, according to the kit protocol, measured by a luminometer. Cell only as control (100%).
The cell viability was calculated according to the following formula: […]

[2] = RNA encapsulation efficacy (EE %) by Quant-IT Ribogreen kit; format: physicochemical; conditions: LNP
Method: (§1) The LNP size and polydispersity index (PDI), determined by dynamic light scattering (DLS), and zeta potential were measured by a Zetasizer machine (Malvern). RNA concentration and encapsulation efficacy (EE %) were analyzed by the Quant-IT Ribogreen kit by calculating the percentage encapsulation at 100%—(RNA-LNPs/RNA-LNPs with Triton X-100).

[3] = tested on: Hep G2 cells; test: In vitro expression: luciferase activity in Hep G2 cells transfected with RNA-LNPs; format: cell-based; conditions: Formulation No. 001, RNA No. 331 (firefly-luciferase), 100 ng/mL RNA-LNPs, 72 hours post transfection
Method: 2E5 Hep G2 cells were transfected with 100 ng/mL of RNA-LNPs encoding for firefly-luciferase. At 72 hours post transfection, the cells were washed and lysed. The luciferase expression (2-well repeat) was determined in the cell lysates with the luciferase assay reagent kit (Promega), according to the kit protocol, luciferase activity was measured by a luminometer.

[4] = LNP size and polydispersity index (PDI) by dynamic light scattering (Zetasizer); format: physicochemical; conditions: for Size (nm): Formulation No. 001 (Ionizable lipid:DSPC:cholesterol:DMG-PEG2000 = 50:10:38.5:1.5, N/P 6), RNA No. 331
Method: as §1

[5] = tested on: Balb/c mice; test: In vivo expression by IV, 0.05 mg/kg luciferase RNA-LNPs, IVIS luminescence
Method: (§2) 7-8 week old, female Balb/c mice (N=3) were injected with 0.05 mg*kg−1 of RNA-LNPs encoding for firefly-luciferase by intravenous injection. At 24- and 72-hours post injection, animals were intraperitoneally injected with 15 mg/mi of Luciferin substrate and whole-body luminescence was determined by a bioluminescent in vivo imaging system (IVIS).
as §2, with “24-hours” for “24- and 72-hours”, “mg/ml” for “mg/mi”, “whole-body/liver/spleen” for “whole-body”

[6] = In vivo lipid metabolism by IV: ionizable lipid concentration in plasma and liver by LC-MS/MS; parameters: species or system Sprague-Dawley (SD) rats; conditions: IV 0.15 mg/kg RNA-LNPs (hEPO), male SD rats, individual animals N=3
Method: In Vivo Lipid Metabolism by IV 7-8 week old, male Sprague-Dawley (SD) rats (N=3) were injected with 0.15 mg*kg−1 of RNA-LNPs encoding for hEPO by intravenous injection. At 1-/6-/96-/168-hours post injection, about 100 μL blood will be harvested and immediately added to the EDTAK2 containing tube. Place on wet ice and then centrifuged at 3000 g×5 min to obtain plasma. 30 μL plasma will be aliquoted to the 1.5 mL tubes. At terminal 6-/168-hours post injection, the rats will be euthanized with CO2, hemorrhaged immediately with cardiac puncture, respectively. The livers were harvested, weighed and washed with saline, then put into 50 ml centrifuge tube placed in liquid nitrogen, then transferred into wet ice, and finally stored at −80° C. immediately. Both plasma and liver samples were used for ionizable lipid concentration quantification by LC-MS/MS. The lower limit of quantitation (LLOQ) is 1 ng/mL in plasma or 11 ng/g in liver. BQL—Below the lower limit of quantitation (LLOQ).

[7] = tested on: MCP-1; test: In vivo tolerability by IV: serum MCP-1 by Luminex; parameters: species or system C57BL/6J mice; conditions: IV 1.0 mg/kg, male C57BL/6J mice N=3, Formulation 001, RNA 331
Method: (§3) 6-8 week old, male C57BL/6J mice (N=3) were injected with 1.0 mg*kg/1 of RNA-LNPs encoding for firefly-luciferase by intravenous injection. At 2- and 24-hours post injection, about 40 μL blood was harvested and immediately added to the procoagulant containing tube. Stand for 30 min at room temperature and then centrifuged at 2500 g×10 min to obtain serum. About 15 μL serum samples were aliquoted for cytokine (MCP-1 and IL-6) detection by Luminex (ProcartaPlex Mouse 2-plex, Thermo). PBS group as negative control.
as §3, with “mg*kg−1” for “mg*kg/1”

[8] = tested on: IL-6; test: In vivo tolerability by IV: serum IL-6 by Luminex; parameters: species or system C57BL/6J mice; conditions: IV 1.0 mg/kg, male C57BL/6J mice N=3, Formulation 001, RNA 331
Method: as §3
as §3, with “mg*kg−1” for “mg*kg/1”

[9] = tested on: C57BL/6J mice; test: In vivo expression by IV, 1.0 mg/kg luciferase RNA-LNPs, whole-body and organ IVIS luminescence; conditions: IV 1.0 mg/kg, 24 h post injection, male C57BL/6J mice N=3, Formulation 001, RNA 331
Method: (§4) 6-8 week old, male C57BL/6J mice (N=3) were injected with 1.0 mg*kg−1 of RNA-LNPs encoding for firefly-luciferase by intravenous injection. At 24-hours post injection, animals were intraperitoneally injected with 15 mg/ml of Luciferin substrate and whole-body/liver/spleen/kidney/small intestine/large intestine luminescence were determined by a bioluminescent in vivo imaging system (IVIS).
as §4, with “mg/nil” for “mg/ml”

[10] = Formulation No. 001, RNA No. 331
[11] = Formulation No. 001, RNA No. 331, female Balb/c mice, 0.05 mg*kg−1 intravenous, 24-hours post injection
[12] = male, Sprague-Dawley, rat, liver, iv, 0.15 mg/kg, 6 h post injection, read-out: Liver (ng/g), ionizable lipid concentration
[13] = male, Sprague-Dawley, rat, plasma, iv, 0.15 mg/kg, 1 h post injection
[14] = male, Sprague-Dawley, rat, plasma, iv, 0.15 mg/kg, 6 h post injection, read-out: Plasma (ng/mL), ionizable lipid concentration
[15] = Formulation No. 001, RNA No. 019 (hEPO)
[16] = IV 0.05 mg/kg, 24 h post injection, female Balb/c mice N=3, Formulation 001, RNA 331

EE (%) [2, 10]	Size (nm) [4]	PDI [4, 10]	Plasma (ng/mL), ionizable lipid concentration ([6]; 1 h post injection)	Liver (ng/g), ionizable lipid concentration ([6]; 6 h post injection)	Plasma (ng/mL), ionizable lipid concentration ([6]; 6 h post injection)	Plasma (ng/mL), ionizable lipid concentration ([6]; 96 h post injection)	Liver (ng/g), ionizable lipid concentration ([6]; 168 h post injection)	Plasma (ng/mL), ionizable lipid concentration ([6]; 168 h post injection)	concentration at 6 h [6, 12]	concentration at 1 h [6, 13]	concentration at 6 h [6, 14]	EE (%) [2, 15]	SMILES	In vitro cell viability (%) (Mean) [1]	In vitro Expression (Mean) [3]	Liver (p/s) (Mean) [5, 11]	Spleen (p/s) (Mean) [5, 11]	Whole body (p/s) (Mean) [5, 11]	MCP-1 at 2 h [7]	MCP-1 at 24 h [7]	other results
95.30%	60.19 nm	0.04											CCCCCCCCC(CCCCCCCC)OC(=O)CCCCCCCOC(=O)C(COC(=O)NCCN1CCCCCC1)NC(=O)OCCCCCCCCOC(=O)C(CCCCCC)CCCCCCCC (stereo not drawn) [Lipid 897]	88.39%	1.77E+05	1.67E+08 p/s	7.67E+07 p/s	8.36E+08 p/s			
98.41%	74.26 nm	0.02											CCCCC/C=C\C/C=C\CCCCCCCCOC(=O)NC(COC(=O)NCCN1CCCC1)C(=O)OCCCCCC(=O)OCC(CCCCCCCC)CCCCCCCCCC (stereo not drawn) [Lipid 909]	94.80%	7.29E+04	7.57E+07 p/s	2.35E+07 p/s	7.25E+08 p/s			
97.83%	74.18 nm	0.03											CCCCCCCCCCCOC(=O)NC(COC(=O)NCCN(C)C)C(=O)OCCCCCCCC(=O)OC(CCCCCCCC)CCCCCCCC (stereo not drawn) [Lipid 912]	92.96%	4.57E+04	1.67E+07 p/s	7.97E+06 p/s	8.26E+07 p/s			
97.46%	92.24 nm	0.04											CCCCCCCCCC(=O)OCCCCCCCOC(=O)C(COC(=O)NCCN(C)C)NC(=O)OCCCCCCCCOC(=O)C(CCCCCC)CCCCCCCC (stereo not drawn) [Lipid 930]	92.08%	8.27E+03	3.49E+07 p/s	6.28E+06 p/s	1.31E+08 p/s			
94.34%		0.01	2412 ng/mL and 2622 ng/mL	38824 ng/g and 43259 ng/g	1241 ng/mL and 1471 ng/mL	31.2 ng/mL and 26.1 ng/mL	2432 ng/g and 1960 ng/g	7.35 ng/mL and 11.3 ng/mL and 4.48 ng/mL	36500 ng/g	2420 ng/mL	1210 ng/mL	97.29%	CCCCCCCCCCC(CCCCCCCC)COC(=O)CCCCCOC(=O)NC(COC(=O)NCCN1CCCCC1)C(=O)OCCCCCC(=O)OCC(CCCCCCCC)CCCCCCCCCC (stereo not drawn) [Lipid 1020]						1930 pg/mL	180 pg/mL	concentration at 168 h ([6]; male, Sprague-Dawley, rat, liver, iv, 0.15 mg/kg, 168 h post injection, read-out: Liver (ng/g), ionizable lipid concentration): 2890 ng/g; concentration at 96 h ([6]; male, Sprague-Dawley, rat, plasma, iv, 0.15 mg/kg, 96 h post injection): 33.6 ng/mL; IL-6 at 2 h [8]: 90.5 pg/mL; IL-6 at 24 h [8]: 1.07 pg/mL; PDI [4, 15]: 0.06; Size [4, 15]: 55.95 nm; Size [4, 10]: 57.55 nm; Liver (p/s) (Mean) [5, 16]: 1.38E+08 p/s; Spleen (p/s) (Mean) [5, 16]: 2.67E+07 p/s; Whole body (p/s) (Mean) [5, 16]: 4.91E+08 p/s; Kidney (p/s) [9]: 5.29E+07 p/s; Large intestine (p/s) [9]: 2.16E+08 p/s; Liver (p/s) [9]: 1.90E+10 p/s; Small intestine (p/s) [9]: 1.62E+09 p/s; Spleen (p/s) [9]: 1.14E+09 p/s; Whole body (p/s) [9]: 9.25E+09 p/s
93.55%		0.05	2558 ng/mL and 2938 ng/mL	33582 ng/g and 37570 ng/g	976 ng/mL and 1347 ng/mL	23.9 ng/mL and 5.16 ng/mL and 9.41 ng/mL	3103 ng/g and 1228 ng/g and 1508 ng/g	6.98 ng/mL and 1.89 ng/mL	48100 ng/g	3280 ng/mL	1480 ng/mL	96.60%	CCCCCCCCCCC(CCCCCCCC)COC(=O)CCCCCOC(=O)NC(COC(=O)NCCN1CCCCCC1)C(=O)OCCCCCC(=O)OCC(CCCCCCCC)CCCCCCCCCC (stereo not drawn) [Lipid 1021]						1560 pg/mL	166 pg/mL	IL-6 at 2 h [8]: 28.6 pg/mL; IL-6 at 24 h [8]: 0.639 pg/mL; PDI [4, 15]: 0.04; Size [4, 15]: 57.55 nm; Size [4, 10]: 57.55 nm; Liver (p/s) (Mean) [5, 16]: 1.19E+08 p/s; Spleen (p/s) (Mean) [5, 16]: 5.32E+07 p/s; Whole body (p/s) (Mean) [5, 16]: 8.26E+08 p/s; Kidney (p/s) [9]: 5.69E+07 p/s; Large intestine (p/s) [9]: 1.91E+08 p/s; Liver (p/s) [9]: 1.88E+10 p/s; Small intestine (p/s) [9]: 1.60E+09 p/s; Spleen (p/s) [9]: 6.45E+08 p/s; Whole body (p/s) [9]: 1.48E+10 p/s
